# Data published in US20130039887A1, “Methods of Identifying and Using Anti-Viral Compounds” (KINETA, INC., priority 2010, published 2013).
# Legend:
# [1] = test system: Influenza A virus WSN strain (A/WSN/33); test: Influenza A virus nucleoprotein ELISA / Western blot assay; assay type: cell-based; conditions: ELISA and Western blot
# ISG54 promoter = test: ISG54-luciferase reporter assay in Huh7-ISG54-Luc cells; assay type: cell-based, human; conditions: dose response (5-50 μM), 24 h
# Huh7, MRC5 and 293 cells = test: MTS cytotoxicity assay in multiple cell types (Huh7, MRC5, 293); assay type: cell-based, human
# Protocol: All lead molecules chosen for further development mediate IRF-3 nuclear translocation and have antiviral activity against HCV. All induce dose-dependent activation of ISG expression in the absence of nonspecific promoter (β-actin) induction. To analyze in vitro cytotoxicity of lead agonist molecules, an MTS assay was conducted using multiple cell types (Huh7, human liver; MRC5, lung fibroblast; and 293, […]).
# actin promoter = test: Actin promoter control cell line counter screen (β-actin-LUC); assay type: cell-based, human
# HCV2a virus = test: HCV immunofluorescence antiviral / focus-forming assay in Huh7 cells; assay type: cell-based, Hepatitis C virus; conditions: Huh7 cells pre-treated 24 h (compounds 10 μM), HCV2a MOI 0.1-0.5
# Protocol: HCV immunofluorescence antiviral assay: Huh7 cells are seeded on a 96-well plate at a density of 5×10^3 cells per well and grown for 24 hours. Compounds that have been diluted to 10 μM in media and contain a final concentration of 0.5% DMSO are added to each well and grown another 24 hours. The compound media solution is removed from the plate and stored in a clean tissue culture dish. Cell monolayers are washed with PBS and HCV2a virus is added at the stated MOI. Virus is incubated for 2-4 hours and then removed, the monolayers are washed with PBS and the compound solutions are replaced into each well.
# The cells are grown overnight and then cells are fixed and stained for HCV proteins. All buffers and reagents used are from the Cellomics staining kits described above. HCV specific antibodies from either commercial sources or primary patient serum can be used to detect HCV infected cells in culture. […] The number of infected cells is counted and representative images are saved. […]
# To measure levels of HCV infection with or without drug treatment the cells were stained for HCV specific staining using serum and a FITC conjugated fluorescent secondary antibody. […] Using an inverted fluorescent microscope the number of infected cells is quantitated (shown—FIG. 9 bottom panel). […]
Molecule,anti-influenza activity (viral nucleoprotein levels) [1],induction of the ISG54-luciferase reporter (ISG54 promoter),"cytotoxicity (MTS assay) (Huh7, MRC5 and 293 cells)",nonspecific promoter induction (β-actin-LUC) (actin promoter),"HCV infection (infected cells stained for HCV proteins, IF assay) (HCV2a virus)"
COc1ccc(NC(=O)Cn2c(=O)n(Cc3ccco3)c(=O)c3oc4ccccc4c32)c(OC)c1 [KIN500],"efficient, dose-dependent anti-influenza activity",–,–,–,–
NS(=O)(=O)c1ccc(-c2ccc(/C=C3/SC(=S)N(Cc4ccco4)C3=O)o2)cc1 [KIN300],"efficient, dose-dependent anti-influenza activity",dose-dependent induction,absence of cytotoxicity,absence of nonspecific promoter induction,–
N#Cc1c(-c2ccccc2)cc(-c2ccccc2)nc1SCC(=O)N1CCOCC1 [KIN400],"efficient, dose-dependent anti-influenza activity",–,–,–,–
Interferon,–,–,–,–,completely blocks HCV infection
